In patent US7939542B2, “Cinnamaldehyde derivatives having improved solubility in water, a method for preparing the same and a pharmaceutical composition comprising the same” (Korea Research Institute of Bioscience and Biotechnology, priority 2008, dated 2011):

How the values were obtained:
[1] = Solubility (physicochemical properties); details: for Solubility: Insoluble: solvents in which the compound is insoluble; for Solubility: Soluble: solvents in which the compound is soluble
[2] = system: human colon carcinoma SW620 cells; assay: Cell cycle analysis by flow cytometry (PI staining); format: cell-based; details: 48 hours
Protocol: In practice, when human colon carcinoma SW620 cells are dosed with 10 to 20 μM of the compound of Chemical Formula 1, the compound induces a cell cycle arrest in the G2/M phase, leading to cell growth inhibition. The inhibition of the growth of cancer cells may be tested as follows. In brief, human colon carcinoma SW620 cells were dosed with the compound dissolved in DMSO. After 48 hrs, nuclear DNA was stained with propidium iodide. The stained cells were analyzed to determine the cell cycle using a FACSCalibur cytometer (Becton-Dickinson, San Jose, Calif., USA). The proportions of cells in G1, S and G2/M phases were determined using a Becton-Dickinson Modifit cell-cycle analysis program and expressed as percentages.
For flow cytometric analysis, human colon carcinoma SW620 cells were plated in T25 flasks (containing 7.5 ml of culture medium) and cultured in RPMI 1640 and DMEM media, each of which was supplemented with 10% FBS, in an incubator at 37° C. for 12 hrs. Then, as a control, DMSO was added to the culture medium at a final concentration of 0.1% (7.5 μl). As compound treatment groups, 7.5 μl of each of compounds dissolved in DMSO at various concentrations was added to the culture medium. After 48 hours, control (DMSO) and compound-treated cells were harvested and subjected to flow cytometric analysis.
After the culture media were removed from flasks, cells were trypsinized and centrifuged at 300 g for 5 min. The collected cells were washed with phosphate buffer twice to remove culture media. The cells were then fixed in 3 ml of 70% ethanol at −20° C. for 12 hrs. The fixed cells were centrifuged at 300 g for 5 min and washed with cold PBS twice to remove remaining ethanol. The washed cells were resuspended in 500 μl of PBS, and treated with 50 μl of 100 μg/ml RNase A at 37° C. for 30 min. Then, cells were incubated in 10 μl of 1 mg/ml propidium iodide (PI) in PBS for DNA staining. The cell cycles of 20,000 stained cells were analyzed using a FACSCalibur cytometer (Becton-Dickinson, San Jose, Calif., USA). Cell cycle fractions were quantified using a Becton-Dickinson Modifit cell-cycle analysis program, and the distribution of cells in G1, S and G2/M phases was expressed as percentages.

[3] = system: human colon carcinoma HT-29 cells; assay: Anticancer activity upon oral administration to tumor-xenografted nude mice; format: in vivo; details: HT-29 xenograft, 10 mg/kg orally once every day, Day 18, p<0.001
Protocol: Tumor diameter was measured in three planes with a vernier caliper. Tumor volume (V) was calculated using the following Equation 1. Tumor volume=(Length×Width×Height)/2 [Equation 1]
On Day 18 of tumor transplantation, animals were sacrificed, and tumors were excised and weighed.

[4] = Body weight change in tumor-xenografted nude mice; details: positive control 2 mg/kg, 18 days, p<0.001
Protocol: Nude mice were divided into three groups: a compound administration group, a vehicle control group and a positive control group. A 0.3-ml aliquot of human colon carcinoma HT-29 cells (3×10^7 cells/ml) was injected subcutaneously into the right axilla between the scapular region and the chest wall of mice. From the day (Day 1) after tumor transplantation to the day before sacrifice, the compound of Chemical Formula 6 was administered orally at a dose of 10 mg/kg once every day.
In order to investigate the clinical signs of drug toxicity, animals were monitored for change in body weight about three times a week during the test period.

| SMILES | Solubility: Insoluble [1] | Solubility: Soluble [1] | Cell distribution (%) G0-G1 ([2]; SW620, 20 μM) [%] | Cell distribution (%) G2-M ([2]; SW620, 20 μM) [%] | Cell distribution (%) S ([2]; SW620, 20 μM) [%] | Water solubility [1] [µM] | tumor growth inhibitory effect [3] [%] | Cell distribution (%) G0-G1 ([2]; SW620, 40 μM) [%] | Cell distribution (%) G2-M ([2]; SW620, 40 μM) [%] | Cell distribution (%) S ([2]; SW620, 40 μM) [%] | weight loss [4] [%] | Cell distribution (%) G0-G1 ([2]; SW620, 30 μM) [%] | Cell distribution (%) G2-M ([2]; SW620, 30 μM) [%] | Cell distribution (%) S ([2]; SW620, 30 μM) [%] |
| --- | --- | --- | --- | --- | --- | --- | --- | --- | --- | --- | --- | --- | --- | --- |
| O=C/C=C/c1ccccc1OCc1ccncc1 [Compound of Formula 3] | Hexane, H2O | Alcohol, DMSO | 39.80 | 33.63 | 26.57 |  |  |  |  |  |  |  |  |  |
| COCC(=O)Oc1ccccc1/C=C/C=O [Compound of Formula 2] | Hexane | Alcohol, DMSO | 33.00 | 49.94 | 17.06 | 320 |  |  |  |  |  |  |  |  |
| Cl.O=C/C=C/c1ccccc1OCc1ccncc1 [Compound of Formula 6] | Hexane, acetone | Alcohol, H2O | 39.80 | 33.63 | 26.57 |  | 30.7 | 43.85 | 41.31 | 14.84 |  |  |  |  |
| COc1cccc2c1C(=O)c1c(O)c3c(c(O)c1C2=O)C[C@@](O)(C(=O)CO)C[C@@H]3O[C@H]1C[C@H](N)[C@H](O)[C@H](C)O1 [adriamycin] |  |  |  |  |  |  |  |  |  |  | 10.3 |  |  |  |
| CN1CCN(C(=O)Oc2ccccc2/C=C/C=O)CC1 [Compound of Formula 4] | Hexane, H2O | Alcohol, DMSO |  |  |  |  |  |  |  |  |  | 37.50 | 45.49 | 17.01 |
| O=C/C=C/c1ccccc1OS(=O)(=O)c1ccccc1 [Compound of Formula 5] | Hexane | Alcohol, DMSO | 36.01 | 45.94 | 18.05 | 600 |  |  |  |  |  |  |  |  |
| CN1CCN(C(=O)Oc2ccccc2/C=C/C=O)CC1.Cl [Compound of Formula 7] | Hexane, acetone | Alcohol, H2O |  |  |  |  |  |  |  |  |  | 35.11 | 47.83 | 17.06 |
